Assay results from patent publication US9688675B2, “1,7-naphthyridine derivatives” (Hoffmann-La Roche Inc., priority 2013, dated 2017).

Test system: human embryonic stem cell derived neural stem cells (NSCs)
Experiment: Neural Stem Cell Proliferation Assay (Neurogenesis Assay, ATP levels by CellTiterGlo)
Type: cell-based
Details: 96 h, compound concentration at which 150% activity of control (100%) is reached, NSC proliferation, 4 days incubation
Experimental: Neural Stem Cell Proliferation Assay
Neurogenic properties of small molecules are determined based on the proliferation of human embryonic stem cell derived neural stem cells (NSCs) which were derived via a dual smad inhibition as previously described (Chambers, S. M., et al., Highly efficient neural conversion of human ES and iPS cells by dual inhibition of SMAD signaling, Nature biotechnology, 2009. 27(3): p. 275-80.)
Compounds respond is measured by the increase in cells based on ATP levels
(Promega:CellTiterGlo®) after an incubation period of 4 days.
NSCs are thawed and expanded over 3 passages. On the 14th day, NSCs are seeded in Polyornithin/Laminin coated 384 well plates at a cell density of 21′000 cells/cm^2 in a media volume of 38 μl.
4 hours after cell seeding, compound solutions are added at a volume of 2 μl. Stock solutions of the compounds (water, 5% DMSO) are diluted to obtain a dose response (11 points, dilution factor is 2), ranging from 8 μM to 8 nM. Controls are run to consistently determine the neurogenic properties of the cells:
Negative (neutral) control is cell culture Media (final DMSO concentration: 0.25%).
Positive controls are: • 1. cell culture Media+100 ng/ml FGF2 (final DMSO concentration: 0.1%) • 2. cell culture Media+20 ng/ml EGF (final DMSO concentration: 0.1%) • 3. cell culture Media+100 ng/ml Wnt3a (final DMSO concentration: 0.1%)
After 4 days incubation at 37° C., 5% CO2, the amount of ATP per well is quantified. The ATP concentration is proportional to the cell number. ATP is quantified by using the Promega CellTiterGlo® kit. The CellTiterGlo® reagents contain a cell lysis buffer, a thermo stable luciferase (UltraGlo™ recombinant luciferase), magnesium and luciferin. Luciferin reacts with ATP producing oxyluciferin, AMP and light. The luminescence signal is proportional to the ATP content.
The value of negative (neutral) control is determined for each assay plate by taking the average of 16 negative control wells. The neurogenic compound response is calculated for each compound as (compound/Negative Control)*100.
The values of EC150 from the dose response curve are determined for each test compound. The EC150 is the compound concentration at which 150% activity of control (100%) is reached.

NC(=O)c1cnc2cncc(-c3ccc(Cl)cc3Cl)c2c1 [Example 28, 5-(2,4-Dichlorophenyl)-1,7-naphthyridine-3-carboxamide]
EC (150% of control): 0.46 µM

CS(=O)(=O)c1ccc(CNC(=O)c2cnc3cncc(-c4ccc(Cl)cc4)c3c2)cc1 [Example 18, 5-(4-Chlorophenyl)-N-(4-(methylsulfonyl)benzyl)-1,7-naphthyridine-3-carboxamide]
EC (150% of control): 0.25 µM

O=C(NCC1CC1)c1cnc2cncc(-c3ccc(Cl)cc3)c2c1 [Example 20, 5-(4-Chlorophenyl)-N-(cyclopropylmethyl)-1,7-naphthyridine-3-carboxamide]
EC (150% of control): 4.24 µM

NC(=O)c1cnc2cncc(N3CCOCC3)c2c1 [Example 16, 5-Morpholino-1,7-naphthyridine-3-carboxamide]
EC (150% of control): 1.43 µM

NC(=O)c1cnc2cncc(-c3ccc(F)cc3F)c2c1 [Example 7, 5-(2,4-Difluorophenyl)-1,7-naphthyridine-3-carboxamide]
EC (150% of control): 0.48 µM

NC(=O)c1cnc2cncc(-c3ccc(Cl)cc3F)c2c1 [Example 12, 5-(4-Chloro-2-fluorophenyl)-1,7-naphthyridine-3-carboxamide]
EC (150% of control): 0.07 µM

NC(=O)c1cnc2cncc(-c3ccc(F)cc3)c2c1 [Example 5, 5-(4-Fluorophenyl)-1,7-naphthyridine-3-carboxamide]
EC (150% of control): 1.1 µM

O=C(NCC(F)(F)F)c1cnc2cncc(-c3ccccc3F)c2c1 [Example 14, 5-(2-Fluorophenyl)-N-(2,2,2-trifluoroethyl)-1,7-naphthyridine-3-carboxamide]
EC (150% of control): 1.21 µM

COc1cccc(-c2cncc3ncc(C(N)=O)cc23)c1 [Example 22, 5-(3-Methoxyphenyl)-1,7-naphthyridine-3-carboxamide]
EC (150% of control): 1.93 µM

NC(=O)c1cnc2cncc(-c3ccc(Cl)nc3)c2c1 [Example 27, 5-(6-Chloropyridin-3-yl)-1,7-naphthyridine-3-carboxamide]
EC (150% of control): 1.08 µM

NC(=O)c1cnc2cncc(-c3ccc(Cl)cc3)c2c1 [Example 1, 5-(4-Chlorophenyl)-1,7-naphthyridine-3-carboxamide]
EC (150% of control): 0.09 µM

CS(=O)(=O)c1ccc(-c2cncc3ncc(C(N)=O)cc23)cc1 [Example 9, 5-(4-(Methylsulfonyl)phenyl)-1,7-naphthyridine-3-carboxamide]
EC (150% of control): 1.58 µM

NC(=O)c1cnc2cncc(-c3ccc(OC(F)(F)F)cc3)c2c1 [Example 2, 5-(4-(Trifluoromethoxy)phenyl)-1,7-naphthyridine-3-carboxamide]
EC (150% of control): 0.47 µM

NC(=O)c1cnc2cncc(-c3cccc(OC(F)(F)F)c3)c2c1 [Example 23, 5-(3-(Trifluoromethoxy)phenyl)-1,7-naphthyridine-3-carboxamide]
EC (150% of control): 5.73 µM

CS(=O)(=O)CCNC(=O)c1cnc2cncc(-c3ccc(Cl)cc3F)c2c1 [Example 13, 5-(4-Chloro-2-fluorophenyl)-N-(2-(methylsulfonyl)ethyl)-1,7-naphthyridine-3-carboxamide]
EC (150% of control): 1.51 µM

COC(=O)c1cncc2ncc(C(N)=O)cc12 [Example 24, Methyl 3-carbamoyl-1,7-naphthyridine-5-carboxylate]
EC (150% of control): 3.2 µM

NC(=O)c1cnc2cncc(-c3ccc(F)c(F)c3)c2c1 [Example 6, 5-(3,4-Difluorophenyl)-1,7-naphthyridine-3-carboxamide]
EC (150% of control): 0.55 µM

Cc1nc2cncc(-c3ccc(Cl)cc3)c2cc1C(N)=O [Example 11, 5-(4-Chlorophenyl)-2-methyl-1,7-naphthyridine-3-carboxamide]
EC (150% of control): 0.12 µM

O=C(NCC(F)(F)F)c1cnc2cncc(-c3ccc(F)cc3F)c2c1 [Example 15, 5-(2,4-Difluorophenyl)-N-(2,2,2-trifluoroethyl)-1,7-naphthyridine-3-carboxamide]
EC (150% of control): 1.36 µM

NC(=O)c1cnc2cncc(C3=CCOCC3)c2c1 [Example 25, 5-(3,6-Dihydro-2H-pyran-4-yl)-1,7-naphthyridine-3-carboxamide]
EC (150% of control): 4.41 µM

NC(=O)c1cnc2cncc(N3CCC(F)(F)CC3)c2c1 [Example 26, 5-(4,4-Difluoropiperidin-1-yl)-1,7-naphthyridine-3-carboxamide]
EC (150% of control): 2.09 µM

NC(=O)c1cnc2cncc(-c3ccc(C(F)(F)F)cc3)c2c1 [Example 10, 5-(4-(Trifluoromethyl)phenyl)-1,7-naphthyridine-3-carboxamide]
EC (150% of control): 0.3 µM

N#Cc1ccc(-c2cncc3ncc(C(N)=O)cc23)cc1 [Example 8, 5-(4-Cyanophenyl)-1,7-naphthyridine-3-carboxamide]
EC (150% of control): 1.37 µM

COCCNC(=O)c1cnc2cncc(-c3ccc(Cl)cc3)c2c1 [Example 21, 5-(4-Chlorophenyl)-N-(2-methoxyethyl)-1,7-naphthyridine-3-carboxamide]
EC (150% of control): 4.6 µM

NC(=O)c1cnc2cncc(-c3cc(F)c(F)c(F)c3)c2c1 [Example 4, 5-(3,4,5-Trifluorophenyl)-1,7-naphthyridine-3-carboxamide]
EC (150% of control): 1.9 µM

CS(=O)(=O)c1cccc(CNC(=O)c2cnc3cncc(-c4ccc(Cl)cc4)c3c2)c1 [Example 19, 5-(4-Chlorophenyl)-N-(3-(methylsulfonyl)benzyl)-1,7-naphthyridine-3-carboxamide]
EC (150% of control): 3.18 µM

O=C(NCC(F)(F)F)c1cnc2cncc(-c3ccc(F)cc3)c2c1 [Example 17, 5-(4-Fluorophenyl)-N-(2,2,2-trifluoroethyl)-1,7-naphthyridine-3-carboxamide]
EC (150% of control): 1.13 µM

NC(=O)c1cnc2cncc(-c3ccccc3F)c2c1 [Example 3, 5-(2-Fluorophenyl)-1,7-naphthyridine-3-carboxamide]
EC (150% of control): 1.12 µM
